Structures can show the parent of a compound that is named as a salt. Where two headings read alike, the source gives them in different places. Marks after values point to notes of the source that are not given here.

Assay [1] addresses T1, elAChE (electric eel AChE) (Electrophorus electricus, UniProt O42275).
T1 construct: purchased Sigma-Aldrich (Shanghai, PRC)
Particulars: after pre-incubation with the enzyme for 60 min; read-out: elAChE IC50 Mean ± SD; cited from earlier work.

In another assay the test system is BChE. Particulars: cited from earlier work.
A further assay relates to AChE. Particulars: cited from earlier work.
Assay [2] concerns the target T2, eqBChE (Equus caballus, UniProt P81908).
T2 construct: BChE (equine serum BChE (eqBChE)); purchased Sigma-Aldrich (Shanghai, PRC); host or cells: equine serum
Particulars: same conditions, cited from earlier work.

Assay [3] concerns the target T2, eqBChE. Particulars: same conditions, cited from earlier work. This is another data set of the same source.
In assay [4] the target is T3, eqBChE (equine serum BChE) (Equus caballus, UniProt P81908).
T3 construct: BChE (equine serum BChE (eqBChE)); purchased Sigma-Aldrich (Shanghai, PRC); host or cells: equine serum
T3 sequence (P81908 whole entry): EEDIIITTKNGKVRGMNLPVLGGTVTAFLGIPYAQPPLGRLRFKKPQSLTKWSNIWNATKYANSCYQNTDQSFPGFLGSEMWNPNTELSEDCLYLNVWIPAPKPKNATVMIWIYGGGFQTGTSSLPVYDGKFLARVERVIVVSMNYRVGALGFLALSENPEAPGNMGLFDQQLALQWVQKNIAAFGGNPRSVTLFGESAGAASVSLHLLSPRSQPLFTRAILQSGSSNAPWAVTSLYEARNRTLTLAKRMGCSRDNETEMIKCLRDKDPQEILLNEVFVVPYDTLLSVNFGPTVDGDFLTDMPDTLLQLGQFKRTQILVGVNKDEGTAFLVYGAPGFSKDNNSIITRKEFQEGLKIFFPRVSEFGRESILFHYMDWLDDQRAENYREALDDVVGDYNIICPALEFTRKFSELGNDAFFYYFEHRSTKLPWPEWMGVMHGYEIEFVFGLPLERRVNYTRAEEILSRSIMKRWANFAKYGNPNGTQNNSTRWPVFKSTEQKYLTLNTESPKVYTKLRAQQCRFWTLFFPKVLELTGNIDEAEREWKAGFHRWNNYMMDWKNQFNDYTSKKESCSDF
Nature of the assay: Modified Ellman's assay, IC50 for eqBChE. Type of assay: biochemical. Particulars: for fold less effective eqBChE inhibitor than the meta-position derivative: para- vs meta-position carbamate: MTR-13 vs MTR-1, MTR-14 vs MTR-2, MTR-15 vs MTR-3. As to the method:
(§1) The inhibitory activities of the synthesized compounds on ChEs were evaluated utilizing elAChE and eqBChE.
(§2) The ChE inhibition abilities of the compounds were determined using a modified version of Ellman’s assay. All the experiments were conducted in 96-well plates, and the readings were obtained using an EnSpire Multimode 2300 plate reader (Perkin Elmer, MA, USA) or a multimode microplate reader (Berthold Technologies). elAChE, eqBChE, S-acetylthiocholine iodide (ATCh), S-butyrylthiocholine iodide (BTCh) and 5-5′-dithiobis (2-nitrobenzoic) acid (DTNB) were purchased from Sigma-Aldrich (Shanghai, PRC). ATCh and BTCh stock solutions were freshly prepared in water. A stock solution of DTNB (Ellman’s reagent) was prepared fresh in a sodium phosphate buffer (100 mM, pH 7, 0.15% NaHCO3 w/v). Stock solutions of drugs were prepared in a solution of acetonitrile and water (v:v = 1:9). The pH for the measurements was 8.
(§3) First, 25 μL aliquots of drug solutions at different concentrations were added to 200 μL of elAChE (0.04 U/mL) or eqBChE (0.1 U/mL) in a phosphate buffer (100 mM sodium phosphate buffer, pH 8), and the reaction system was pre-incubated at 37 °C for determined time periods. Then, 25 μL of a solution containing ATCh or BTCh (2.5 mM) and DTNB (3.4 mM) in the 100 mM sodium phosphate buffer was added to the reactions. Enzyme activity (vi) was determined by measuring the absorbance (412 nm) at 37 °C for 5 min. […] A sample containing phosphate buffer (pH 8) in place of the enzyme was analyzed for each drug concentration to account for the spontaneous conversion of the substrate into a product, and the values obtained were subtracted from each measured activity.
(§4) This method was based on the general measurement of ChE activity. […] The measurements were repeated three times for each concentration.

The target of assay [5] is T1, elAChE (electric eel AChE). Nature of the assay: biochemical. As to the method: as §1, §2, §3, §4
In assay [6] the target is T2, eqBChE. The assay is described as follows: Kinetic study of eqBChE inhibition, carbamylation rate constant kI. Type of assay: biochemical, equine. Particulars: pre-incubation 1-45 min, seven concentrations, read-out: kI, second-order carbamylation rate constant, Mean ± SD (converted). As to the method: as §3
The target of assay [7] is T2, eqBChE. The assay is described as follows: Decarbamylation rate constant k3 of carbamylated eqBChE. Type of assay: biochemical, equine.
Setting [8] is: after pre-incubation with the enzyme for 60 min, 37 °C, pH 8, read-out: eqBChE IC50 Mean ± SD.
[9] abbreviates: elAChE IC50 Mean ± SD, after pre-incubation with the enzyme for 60 min, 37 °C, pH 8.
Where [10] appears, read: after pre-incubation with the enzyme for 60 min, 37 °C, pH 8, read-out: elAChE IC50 Mean ± SD.

T2 sequence (P81908 whole entry): as above
T1 sequence (O42275 24-633): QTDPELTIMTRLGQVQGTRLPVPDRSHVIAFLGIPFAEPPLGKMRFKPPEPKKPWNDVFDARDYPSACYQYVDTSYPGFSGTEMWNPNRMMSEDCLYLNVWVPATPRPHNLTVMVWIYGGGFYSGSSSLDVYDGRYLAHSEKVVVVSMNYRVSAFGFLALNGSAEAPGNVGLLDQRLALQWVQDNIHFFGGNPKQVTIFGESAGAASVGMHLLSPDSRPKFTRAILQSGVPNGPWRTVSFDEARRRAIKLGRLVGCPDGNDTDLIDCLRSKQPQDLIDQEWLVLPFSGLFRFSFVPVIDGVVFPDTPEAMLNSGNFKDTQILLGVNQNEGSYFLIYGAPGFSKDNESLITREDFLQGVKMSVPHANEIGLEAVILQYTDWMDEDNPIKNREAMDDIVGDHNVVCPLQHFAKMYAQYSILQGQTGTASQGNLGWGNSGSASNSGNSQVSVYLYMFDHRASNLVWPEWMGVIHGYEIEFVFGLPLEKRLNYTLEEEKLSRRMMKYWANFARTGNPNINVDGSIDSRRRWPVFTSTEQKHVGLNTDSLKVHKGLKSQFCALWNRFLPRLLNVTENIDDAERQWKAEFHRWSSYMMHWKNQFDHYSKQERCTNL

One may read the IC50 as the concentration at which inhibition is half-maximal. With `CN(C)C(=O)Oc1cc(OC(=O)N(C)C)cc(C(O)CNC(C)(C)C)c1` (stereo not shown) [Bambuterol], the figures for the IC50 (in assay [1]; in the assay on BChE; with AChE) were more than 100000 nM, 3 nM and 30000 nM, respectively. In addition, the “kI (kI1), carbamylation rate constant, Mean ± SD” value at eqBChE [2] (listed as bambuterol) is given as 1.44 ± 0.02 ×10^5 M^−1 min^−1; at eqBChE [2], 1.44 ± 0.02 ^a ×10^5 M^−1 min^−1. Besides, the “k3, decarbamylation rate constant, Mean ± SD” value on eqBChE [3] (listed as bambuterol) was 0.0839 ± 0.0028 h⁻¹; at eqBChE [3], 0.0839 ± 0.0028 ^a ×h^−1.

Consider `CCN(C)C(=O)Oc1cccc(C(O)CNC(C)(C)C)c1` (stereo not shown) [MTR-1, 3-(2-(Tert-butylamino)-1-hydroxyethyl)phenyl ethyl(methyl)carbamate Hydrochloride], for which the results for the IC50 in [4] (setting [8]) and in assay [5] (setting [9]) were 370 ± 20 nM and more than 100000 nM, respectively.

As to `CCN(C)C(=O)Oc1cccc(C(O)CNC(C)(C)CC)c1` (stereo not shown) [MTR-2, 3-(1-Hydroxy-2-(tert-pentylamino)ethyl)phenyl Ethyl(methyl)carbamate hydrochloride], the figures for the concentration for half-maximal inhibition (IC50) in [4] (setting [8]) and in [5] (setting [9]) were 170 ± 10 nM and more than 100000 nM, respectively.

In the case of `CCN(C)C(=O)Oc1cccc(C(O)CN2CCCCC2)c1` (stereo not shown) [MTR-3, 3-(1-Hydroxy-2-(piperidin-1-yl)ethyl)phenyl Ethyl(methyl)carbamate], the 50% inhibitory concentration (IC50) in assay [4] (as printed in nM in abstract and text, read-out: IC50(BChE)) was 78 nM; in assay [5] (setting [10]), more than 100000 nM; in assay [5] (read-out: IC50(AChE)) it was more than 100000 nM. The kinact/KI at eqBChE [6] was 4630 M⁻¹ s⁻¹. Also, on eqBChE [7] (activity recovery after dilution), the “nature of BChE inhibition” value was “pseudo-irreversible”. Further, on eqBChE [7] (eqBChE, N-methyl-N-ethyl-carbamylated, dilution 1:300, 37 °C, pH 8), the “k3, decarbamylation rate constant, Mean ± SD” value is 0.0093 ± 0.0010 h⁻¹.

With `CCN(C)C(=O)Oc1cccc(C(O)CNC2CCCCC2)c1` (stereo not shown) [MTR-4, 3-(2-(Cyclohexylamino)-1-hydroxyethyl)phenyl Ethyl(methyl)carbamate], the half-inhibitory concentration (IC50) in assay [4] (setting [8]) was determined as 9 ± 0.4 nM; in assay [5] (setting [10]), 79000 ± 4000 nM.

For the compound `CCN(C)C(=O)Oc1cccc(C(O)CNC2CCCC2)c1` (stereo not shown) [MTR-5, 3-(2-(Cyclopentylamino)-1-hydroxyethyl)phenyl Ethyl(methyl)carbamate], the values for the IC50 in [4] (setting [8]) and in assay [5] (setting [10]) were 74 ± 5 nM and 92000 ± 7000 nM, respectively.

For the compound `CCN(C)C(=O)Oc1cccc(C(O)CN2CCOCC2)c1` (stereo not shown) [MTR-6, 3-(1-Hydroxy-2-morpholinoethyl)phenyl Ethyl(methyl)carbamate], the 50% inhibitory concentration (IC50) in [4] (setting [8]) is 2500 ± 200 nM; in assay [5] (setting [10]), more than 100000 nM.

Regarding `CCN(C)C(=O)Oc1cccc(C(O)CN2CCCC2)c1` (stereo not shown) [MTR-7, 3-(1-Hydroxy-2-(pyrrolidin-1-yl)ethyl)phenyl Ethyl(methyl)carbamate], the half-maximal inhibitory concentration (IC50) in [4] (setting [8]) was determined as 210 ± 10 nM; in assay [5] (setting [10]), 78900 ± 900 nM.

Regarding `CCN(C)C(=O)Oc1cccc(C(O)CNc2ccccc2)c1` (stereo not shown) [MTR-8, 3-(1-Hydroxy-2-(phenylamino)ethyl)phenyl Ethyl(methyl)carbamate], the IC50 was 320 ± 20 nM in assay [4] (setting [8]) and more than 100000 nM in assay [5] (setting [10]).

For the compound `CCN(C)C(=O)Oc1cccc(C(O)CNc2ccc(I)cc2)c1` (stereo not shown) [MTR-9, 3-(1-Hydroxy-2-((4-iodophenyl)amino)ethyl)phenyl Ethyl(methyl)carbamate], the IC50 in assay [4] (setting [8]) is 1730 ± 50 nM; in assay [5] (setting [10]) it was more than 100000 nM.

On to `CCN(C)C(=O)Oc1cccc(C(O)CNc2ccc(F)cc2)c1` (stereo not shown) [MTR-10, 3-(2-((4-Fluorophenyl)amino)-1-hydroxyethyl)phenyl Ethyl(methyl)carbamate], for which the IC50 in assay [4] (setting [8]) was 192 ± 7 nM; in [5] (setting [10]), more than 100000 nM.

Consider `CCN(C)C(=O)Oc1cccc(C(O)CNC(C)(C)c2ccccc2)c1` (stereo not shown) [MTR-11, 3-(1-Hydroxy-2-((2-phenylpropan-2-yl)amino)ethyl)phenyl Ethyl(methyl)carbamate], for which the IC50 is 323 ± 8 nM in assay [4] (setting [8]) and more than 100000 nM in [5] (setting [10]).

For `C#Cc1cccc(NCC(O)c2cccc(OC(=O)N(C)CC)c2)c1` (stereo not shown) [MTR-12, 3-(2-((3-Ethynylphenyl)amino)-1-hydroxyethyl)phenyl Ethyl(methyl)carbamate], the figures for the IC50 in assay [4] (setting [8]) and in assay [5] (setting [10]) were 156 ± 7 nM and more than 100000 nM, respectively.

As for `CCN(C)C(=O)Oc1ccc(C(O)CNC(C)(C)C)cc1` (stereo not shown) [MTR-13, 4-(2-(Tert-butylamino)-1-hydroxyethyl)phenyl Ethyl(methyl)carbamate], the half-maximal inhibitory concentration (IC50) is 8700 ± 300 nM in assay [4] (setting [8]) and more than 100000 nM in [5] (setting [10]). Moreover, in assay [4], the “fold less effective eqBChE inhibitor than the meta-position derivative” value is 22 fold.

Turning to `CCN(C)C(=O)Oc1ccc(C(O)CNC(C)(C)CC)cc1` (stereo not shown) [MTR-14, 4-(1-Hydroxy-2-(tert-pentylamino)ethyl)phenyl Ethyl(methyl)carbamate], the values for the IC50 in [4] (setting [8]) and in assay [5] (setting [10]) were 1700 ± 100 nM and more than 100000 nM, respectively. Besides, the “fold less effective eqBChE inhibitor than the meta-position derivative” value in [4] is listed as “ninefold”.

Consider `CCN(C)C(=O)Oc1ccc(C(O)CN2CCCCC2)cc1` (stereo not shown) [MTR-15, 4-(1-Hydroxy-2-(piperidin-1-yl)ethyl)phenyl Ethyl(methyl)carbamate], for which the IC50 stood at 420 ± 20 nM in assay [4] (setting [8]) and 59000 ± 16000 nM in assay [5] (setting [10]).

Values taken from PMC10780165 (Molecules, 2023).
